Assays:
Hann.-Wistar rats = test: Effect on ethanolic narcosis period (righting reflex); assay type: in vivo, rat; details: 1 h before ethanol 3.5 g./kg. i.p., control = 100 ± 4.0, n=10
Procedure: The effect of the compounds according to the invention on ethanolic narcosis period was tested on Hann.-Wistar rats of both sexes, weighing 160 to 180 g. each. The animals were fasted for 16 hours prior to treatment. Groups of ten were then treated with various doses of the compounds of the formula (I) orally. One hour after treatment the animals were given a 3.5 g./kg. dose of ethanol, intraperitoneally. The narcosis period of the animals was measured from the elapse of the righting reflex until a spontaneous correction of the body position. The average of the narcosis period and the standard error were calculated, and the results are given in percentage of the control in Table 1. Abbreviations: x±S.E.=means value ± standard error n=number of animals The control group was treated with a placebo and a […]. dose of ethanol. Narcosis period of the control: 88.5±3.54x±S.E. minutes

Wistar rats = test: Acute toxicity, single oral dose, 14 days observation; assay type: in vivo, rat; details: 500 mg./kg. p.o., n=10
Procedure: (§1) The acute toxicity of the compounds provided by the invention was determined on Wistar rats of both sexes, each weighing 160 to 180 g., which had been treated with a single 500 mg./kg. dose of the test compounds, orally. […] In Table 3 the percentage of the perished animals is given.

[1] = as above; assay type: in vivo, rat; details: rat, in vivo, po, 500 mg./kg. p.o., n=10, read-out: Perished animals (%)
Procedure: as §1

mice = details: cited from earlier work
[2] = in vivo; cited from earlier work
BALB/c mice = test: Effect on ethanolic locomotoric hyperactivity / locomotor activity (Animex BSE motimeter); assay type: in vivo, mouse; details: n=15
Procedure: The effect of the compounds provided by the invention on ethanolic locomotoric hyperactivity was tested on BALB/c mice of both sexes, each weighing 16 to 18 g. The test materials were administered to groups of 15 in a 40 mg./kg. oral dose, one hour before administering a placebo orally or a 2 g./kg. dose of ethanol intraperitoneally. The control animals were treated with a placebo. The locomotor activity of the animals was measured for two hours, using an Animex BSE motimeter. The results are shown as a Table 2, in percentage of the control.
°Control (treated with placebo): ^-x ± S.E. = 3118.3 ±
305.6 total motion/2 hours

[3] = in vivo; cited from earlier work; remark: listed apart in the source

## CCC(O)(c1ccc(OCCN(C(C)C)C(C)C)cc1)c1ccccc1C(F)(F)F (stereo not drawn) [Compound C, α-ethyl-α-(2-trifluoromethylphenyl)-4-[3-(di-isopropylamino)-ethoxy]-benzylalcohol]
Hann.-Wistar rats; 40.0 mg./kg. orally
  Ethanolic narcosis period, control ± S.E. %: 62 ± 5.1%
Wistar rats
  Perished animals (%): 0%

## CCCN(CCC)CCCOc1ccc(C(O)(CC)c2ccccc2OC)cc1 (stereo not drawn) [A, α-ethyl-α-(2-methoxyphenyl)-4-[3-(di-n-propylamino)-propoxy]-benzylalcohol]
Hann.-Wistar rats; 5.0 mg./kg. orally
  Ethanolic narcosis period, control ± S.E. %: 60 ± 10.1%
Hann.-Wistar rats; 10.0 mg./kg. orally
  Ethanolic narcosis period, control ± S.E. %: 50 ± 6.9%
[1]
  mortality at 336 h: 0%

## CC(N)(Cc1ccc(O)cc1)C(=O)O (stereo not drawn) [α-methyl-paratyrosine]
mice; in the effective dose range
  spontaneous locomotoric activity (in words): a decrease of the spontaneous locomotoric activity
mice; mice
  ethanolic locomotoric hyperactivity (in words): normalizes the ethanolic locomotoric hyperactivity

## N[C@@H](CS)C(=O)O [L-cysteine, reference compound]
Hann.-Wistar rats; 500.0 mg./kg. orally
  Ethanolic narcosis period, control ± S.E. %: 63 ± 4.2%
[1]
  mortality at 336 h: 0%
[2]
  alcoholic intoxication, i.e. narcosis period (in words): shortened

## CCCN(CCC)CCCOc1ccc(C(O)(CC)c2cccc(Cl)c2)cc1 (stereo not drawn) [B, α-ethyl-α-(3-chlorophenyl)-4-[3-(di-n-propylamino)-propoxy]-benzylalcohol]
Hann.-Wistar rats; 0.3 mg./kg. orally
  Ethanolic narcosis period, control ± S.E. %: 65 ± 6.8%
Hann.-Wistar rats; 1.0 mg./kg. orally
  Ethanolic narcosis period, control ± S.E. %: 53 ± 4.7%
Hann.-Wistar rats; 10.0 mg./kg. orally
  Ethanolic narcosis period, control ± S.E. %: 49 ± 2.8%
BALB/c mice; B + ethanol 2000 mg./kg. i.p., 40 mg./kg. oral 1 h before, control = 100 ± 9.8, ethanol + placebo = 170 ± 11.8
  Locomotor activity total motion/2 hour (%): 70 ± 8.4%
BALB/c mice; B + placebo (no ethanol), 40 mg./kg. oral, control = 100 ± 9.8
  Locomotor activity total motion/2 hour (%): 108 ± 13.3%
[1]
  mortality at 336 h: 0%

## CC(N)Cc1ccccc1 (centres unmarked) [amphetamine]
[3]
  motoric incoordination (ataxia) (in words): prolong the motoric incoordination (ataxia)
[2]
  narcotizing effect of alcohol (in words): moderate the narcotizing effect of alcohol

## Cn1c(=O)c2c(ncn2C)n(C)c1=O [caffeine]
[3]
  motoric incoordination (ataxia) (in words): prolong the motoric incoordination (ataxia)
[2]
  narcotizing effect of alcohol (in words): moderate the narcotizing effect of alcohol

— US4645779A, “Dialkylaminoalkoxybenzylalcohol derivatives, process for their preparation and pharmaceutical compositions containing them” (Richter Gedeon Vegyeszeti Gyar Rt, priority 1982, dated 1987)
